The DC50 is the midpoint of the concentration-degradation curve. Broadly, the Dmax is the greatest extent of degradation seen.

This test addresses T1, BRD9 (Homo sapiens, UniProt Q9H8M2).
T1 sequence (Q9H8M2 1-597): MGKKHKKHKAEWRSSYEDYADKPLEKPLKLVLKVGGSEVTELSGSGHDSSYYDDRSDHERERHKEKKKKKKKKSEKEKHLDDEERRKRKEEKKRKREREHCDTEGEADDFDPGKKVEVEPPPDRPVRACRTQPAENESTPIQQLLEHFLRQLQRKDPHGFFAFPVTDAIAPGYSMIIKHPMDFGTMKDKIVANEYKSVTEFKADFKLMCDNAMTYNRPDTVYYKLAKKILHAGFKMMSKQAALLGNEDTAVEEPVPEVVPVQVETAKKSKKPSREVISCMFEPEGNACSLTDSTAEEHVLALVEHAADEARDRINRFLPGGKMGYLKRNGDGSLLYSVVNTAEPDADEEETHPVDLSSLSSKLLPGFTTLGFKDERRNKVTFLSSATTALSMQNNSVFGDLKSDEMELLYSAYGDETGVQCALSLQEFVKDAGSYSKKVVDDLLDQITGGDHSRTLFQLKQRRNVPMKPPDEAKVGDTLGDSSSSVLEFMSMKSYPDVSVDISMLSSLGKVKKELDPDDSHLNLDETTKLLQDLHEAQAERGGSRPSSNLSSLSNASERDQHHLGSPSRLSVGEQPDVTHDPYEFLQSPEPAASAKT
The experiment in a line: Degradation of BRD9 (IF), immunofluorescence in MV4-11 cells, 24 hours (Assay Protocol 2). The format is cell-based. The arrangement: A suspension of MV4-11 cells (ATCC CRL-9591) was prepared; host or cells: MV4-11. The note with it: BRD9 degradation; for DC50: Assay protocol 2, read-out: DC50; for Dmax: MV4-11, Assay protocol 2, read-out: Dmax. A digest of the protocol: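 MV4-11 cells treated with compound 24 h at 37° C., then fixed, permeabilised and immunostained for BRD9 (anti-BRD9 E4Q3F, Alexa 647 secondary, Hoechst counterstain). High-content imaging quantified nuclear BRD9 signal; % BRD9 remaining normalised to DMSO and 100 nM CFT-8634 controls.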

SMILES strings stand for the structures.

As to `COc1cc(-c2cn(C)c(=O)c(C)c2C)cc(OC)c1CN1CCN(Cc2cccc3c2CCN(C(=O)/C(C#N)=C/C2(CF)CC2)C3C)C2(CC2)C1` (mixture of isomers) [Compound B144, (E/Z)-2-(5-((7-(2,6-dimethoxy-4-(1,4,5-trimethyl-6-oxo-1,6-dihydropyridin-3-yl)benzyl)-4,7-diazaspiro[2.5]octan-4-yl)methyl)-1-methyl-1,2,3,4-tetrahydroisoquinoline-2-carbonyl)-3-(1-(fluoromethyl)cyclopropyl)acrylonitrile], the DC50 is less than 1.25 nM and the Dmax is more than 75%.

For the compound `COc1cc(-c2cn(C)c(=O)c(C)c2C)cc(OC)c1CN(C)Cc1cccc2c1CCN(C(=O)/C(C#N)=C/C(C)(C)C)C2C(C)C` (mixture of isomers) [Compound C95, (E/Z)-2-(5-(((2,6-dimethoxy-4-(1,4,5-trimethyl-6-oxo-1,6-dihydropyridin-3-yl)benzyl)(methyl)amino)methyl)-1-isopropyl-1,2,3,4-tetrahydroisoquinoline-2-carbonyl)-4,4-dimethylpent-2-enenitrile], the DC50 fell in the range of 10 to 25 nM and the Dmax lay within 40 to 70%.

For `COc1cc(-c2cn(C)c(=O)c(C)c2C)cc(OC)c1CN1CC(Oc2cccc(C3CCCN3C(=O)/C(C#N)=C/C(C)(C)C)c2)C1` (mixture of isomers) [Compound B62, (E/Z)-2-(2-(3-((1-(2,6-dimethoxy-4-(1,4,5-trimethyl-6-oxo-1,6-dihydropyridin-3-yl)benzyl)azetidin-3-yl)oxy)phenyl)pyrrolidine-1-carbonyl)-4,4-dimethylpent-2-enenitrile], the DC50 fell in the range of 1.25 to 10 nM and the Dmax was more than 75%.

As to `COc1cc(-c2cn(C)c(=O)c(C)c2C)cc(OC)c1C(=O)N1CCC(Oc2cccc3c2CCN(C(=O)/C(C#N)=C/c2cccc(Br)n2)C3C)CC1` (mixture of isomers) [Compound B88, (E/Z)-3-(6-bromopyridin-2-yl)-2-(5-((1-(2,6-dimethoxy-4-(1,4,5-trimethyl-6-oxo-1,6-dihydropyridin-3-yl)benzoyl)piperidin-4-yl)oxy)-1-methyl-1,2,3,4-tetrahydroisoquinoline-2-carbonyl)acrylonitrile], the DC50 lay within 10 to 25 nM and the Dmax lay in the range of 40 to 70%.

For the compound `COc1cc(-c2cn(C)c(=O)c3[nH]ncc23)cc(OC)c1CN1CCN(Cc2cccc3c2CCN(C(=O)/C(C#N)=C/c2cccc(Br)n2)C3C)CC1` (mixture of isomers) [Compound B96, (E/Z)-3-(6-bromopyridin-2-yl)-2-(5-((4-(2,6-dimethoxy-4-(6-methyl-7-oxo-6,7-dihydro-1H-pyrazolo[3,4-c]pyridin-4-yl)benzyl)piperazin-1-yl)methyl)-1-methyl-1,2,3,4-tetrahydroisoquinoline-2-carbonyl)acrylonitrile], the DC50 lay in the range of 1.25 to 10 nM and the Dmax was in the range of 40 to 70%.

On to `COc1cc(-c2cn(C)c(=O)c(C)c2C)cc(OC)c1CN1CCN(Cc2ccc3c(c2)[C@@H](C)N(C(=O)/C(C#N)=C/C(C)(C)O)CC3)C2(CC2)C1` (single isomer, unassigned) [Compound C39, (E/Z)-2-(7-((7-(2,6-dimethoxy-4-(1,4,5-trimethyl-6-oxo-1,6-dihydropyridin-3-yl)benzyl)-4,7-diazaspiro[2.5]octan-4-yl)methyl)-1-methyl-1,2,3,4-tetrahydroisoquinoline-2-carbonyl)-4-hydroxy-4-methylpent-2-enenitrile], for which the DC50 is less than 1.25 nM and the Dmax was more than 75%.

Take `COc1cc(-c2cn(C)c(=O)c(C)c2C)cc(OC)c1CN1CCN(Cc2cccc3c2CCN(C(=O)/C(C#N)=C/C2(C)CCCC2)C3C)C2(CC2)C1` (mixture of isomers) [Compound B145, (E/Z)-2-(5-((7-(2,6-dimethoxy-4-(1,4,5-trimethyl-6-oxo-1,6-dihydropyridin-3-yl)benzyl)-4,7-diazaspiro[2.5]octan-4-yl)methyl)-1-methyl-1,2,3,4-tetrahydroisoquinoline-2-carbonyl)-3-(1-methylcyclopentyl)acrylonitrile]: the DC50 is less than 1.25 nM and the Dmax was more than 75%.

The record behind these values is US20260092061A1, “COMPOUNDS FOR TARGETED PROTEIN DEGRADATION” (Amphista Therapeutics Limited, priority 2022, published 2026).
